Data reported in patent publication US20240294551A1 (AMGEN INC., priority 2022, published 2024).

Assays:
[1] = molecular target: His-tagged KRAS G12D protein (Homo sapiens (Human), UniProt P01116, G12D); test: KRAS G12D TR-FRET Assay; format: binding; details: read-out: KRAS G12D Binding IC50
Outline: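 His-tagged KRAS G12D (diluted to 20 nM in pH 7.4 HEPES buffer with 10 mM MgCl2 and 10 μM GDP) was preincubated with titrated compound for 30 min at room temperature. Biotinylated KRPep-2d peptide (diluted to 20 nM) was then added for 1 h, and displacement was monitored by TR-FRET.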

AsPC-1 cells = test: AsPC-1 CTG Assay (CellTiter-Glo cell viability); format: cell-based, human; details: Homo sapiens, ASPC1, 72 h, AsPC-1, 72 h; first value of the cell; read-out: G12D/C/V Cell Proliferation CTG (72 h) AsPC-1
Outline: (§1)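 Human pancreatic AsPC-1 or colon SW620 cells in RPMI 1640 with 10% FBS, seeded overnight, then exposed to serially diluted compound for 72 h at 37 °C. CellTiter-Glo luminescence normalized to DMSO control; IC50 from a 4-parameter logistic model.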

[2] = tested on: p-ERK in PANC 04.03 tumor-bearing mice; test: Tumor Pharmacodynamic Assay (p-ERK inhibition in PANC 04.03 tumors); format: in vivo; details: Mus musculus; PANC 04.03 tumor-bearing female athymic nude mice; single oral dose 100 mg/kg; tumors harvested 2 hr later; relative to vehicle group
Protocol: Tumor Pharmacodynamic Assays
Inhibitor pharmacodynamic effects were assessed in PANC 04.03 tumor-bearing mice. PANC 04.03 tumor cells (5.0E+06 cells) were injected subcutaneously into the flank of female athymic nude mice in a mixture with Matrigel (BD Bioscience). Mice received a single oral dose of either vehicle or inhibitor (100 mg/kg) when the average tumor size reached -300-600 mm^3 (n=3/group) and harvested 2 hours later. Tumor samples were collected, snap frozen, and processed for analysis by pulverizing with a cryoPREP® Dry Impactor (Covaris). Pulverized samples were resuspended in RIPA lysis buffer containing protease and phosphatase inhibitors and homogenized. Cleared lysates were analyzed using phospho-ERK1/2 and total ERK1/2 whole cell lysate kits (Meso Scale Discovery) according to the manufacturer's protocol. Phospho-ERK1/2 signal was normalized to total ERK1/2 signal for a given sample, and percent inhibition of p-ERK was calculated relative to the vehicle group.

MIA PaCa-2 cells = test: MIA PaCa-2 CTG Assay (CellTiter-Glo cell viability); format: cell-based, human; details: Homo sapiens; Mia PaCa-2, 72 h; second value of the cell; read-out: G12D/C/V Cell Proliferation CTG (72 h) Mia PaCa-2
Outline: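 Human pancreatic carcinoma cells in RPMI 1640 with 10% FBS, seeded at 1.67E+04 cells/mL and left overnight, were treated with serially diluted compound for 72 h at 37° C, 5% CO2. Viability was read by CellTiter-Glo luminescence normalized to DMSO; IC50 came from a 4-parameter logistic fit.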

[3] = molecular target: GDP-bound KRAS protein (aa 1-169), containing both G12D and C118A amino acid substitutions (Homo sapiens (Human), UniProt P01116, C118A/G12D); test: KRAS G12D Coupled Nucleotide Exchange Assay; format: biochemical; details: read-out: KRAS G12D Coupled Exchange IC50
GDP-bound KRAS protein (aa 1-169), containing both G12D and C118A amino acid substitutions, sequence (P01116 other isoform, or with tags, fused parts or gaps G12D/C118A): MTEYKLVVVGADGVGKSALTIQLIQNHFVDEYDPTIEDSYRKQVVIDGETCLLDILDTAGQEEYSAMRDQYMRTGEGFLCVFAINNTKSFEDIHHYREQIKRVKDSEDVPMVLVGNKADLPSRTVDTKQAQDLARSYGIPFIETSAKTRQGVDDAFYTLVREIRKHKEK

[4] = tested on: Phosphorylation of ERK1/2 in AsPC-1 cells; test: Phospho-ERK1/2 MSD Assay; format: cell-based, human; details: Homo sapiens, ASPC1, 2 h, read-out: 2 h p-ERK (AsPC-1 cells), IC50
Outline: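 Read-out: MSD electrochemiluminescent detection of phosphorylated ERK1/2 in whole-cell lysates, fitted to a 4-parameter logistic curve for IC50. Prior to lysis, AsPC-1 cells (25,000 per well) received a 2 h compound dose-response at 37 °C.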

SW620 cells = test: SW620 CTG Assay (CellTiter-Glo cell viability); format: cell-based, human; details: Homo sapiens, SW-620; SW620, 72 h; third value of the cell; read-out: G12D/C/V Cell Proliferation CTG (72 h) SW620
Outline: as §1

His-tagged KRAS G12D protein, sequence (P01116 other isoform, or with tags, fused parts or gaps G12D): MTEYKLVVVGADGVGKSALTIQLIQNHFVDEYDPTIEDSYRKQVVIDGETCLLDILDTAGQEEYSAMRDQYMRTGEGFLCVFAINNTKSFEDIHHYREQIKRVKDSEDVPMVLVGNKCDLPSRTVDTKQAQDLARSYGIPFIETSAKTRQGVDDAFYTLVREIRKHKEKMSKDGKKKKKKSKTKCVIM

SMILES | IC50 [1] [nM] | IC50 (AsPC-1 cells) [nM] | IC50 (MIA PaCa-2 cells) [nM] | IC50 [3] [nM] | IC50 [4] [nM] | IC50 (SW620 cells) [nM] | inhibition in vivo at 100 mg/kg [2] [%]
C[C@@]12CCCN(C1)c1nc(OC[C@@]34CCCN3C[C@H](F)C4)nc3c(F)c(c(F)cc13)-c1cc(O)cc3ccc(F)c(c13)CCCC(=O)N2 [Example 15, (15R)-3,22,31-Trifluoro-8-(((2R,7aS)-2-fluorotetrahydro-1H-pyrrolo[1,2-a]pyrrol-7a(5H)-yl)methoxy)-27-hydroxy-15-methyl-7,9,11,16-tetraazahexacyclo[19.7.1.1˜2,6˜.1˜11,15˜.0˜5,10˜.0˜25,29˜]hentriaconta-1(28),2(31),3,5,7,9,21,23,25(29),26-decaen-17-one bis(2,2,2-trifluoroacetate)] | 4 | 141 | – | 3 | 19 | 80 | 0
O=C1COCCCc2c(Cl)cc3[nH]ncc3c2-c2ncc3c(nc(OC[C@@]45CCCN4C[C@H](F)C5)nc3c2F)N2CC[C@H]3CCN1[C@H]3C2 [Example 168, (29S,33R)-18-chloro-34-fluoro-4-(((2R,7aS)-2-fluorotetrahydro-1H-pyrrolo[1,2-a]pyrrol-7a(5H)-yl)methoxy)-23-oxa-1,3,5,9,14,15,26-heptaazaheptacyclo[24.5.2.1~6,10~.0~2,7~.0~11,19~.0~12,16~.0~29,33~]tetratriaconta-2,4,6,8,10(34),11,13,16,18-nonaen-25-one] | 3 | 10 | – | 1 | 1.3 | 3 | 65
CN1CCC[C@H]1COc1nc2c3cnc(c(F)c3n1)-c1c(c(Cl)cc3[nH]ncc13)CCCOC(=O)O[C@]1(C)COCCN2C1 [Example 181, (26S)-18-chloro-32-fluoro-26-methyl-4-(((2S)-1-methyl-2-pyrrolidinyl)methoxy)-23,25,28-trioxa-1,3,5,9,14,15-hexaazahexacyclo[24.4.1.1~6,10~.0~2,7~.0~11,19~.0~12,16~]dotriaconta-2,4,6,8,10(32),11,13,16,18-nonaen-24-one] | 6 | – | 10 | 3 | 18.8 | 8 | 65
C[C@@]12COCCN(C1)c1nc(OCC34CCCN3CCC4)nc3c(F)c(ncc13)-c1c(c(Cl)cc3[nH]ncc13)CCCOC(=O)O2 [Example 209, (26S)-18-chloro-32-fluoro-26-methyl-4-(tetrahydro-1H-pyrrolo[1,2-a]pyrrol-7a(5H)-ylmethoxy)-23,25,28-trioxa-1,3,5,9,14,15-hexaazahexacyclo[24.4.1.1~6,10~.0~2,7~.0~11,19~.0~12,16~]dotriaconta-2,4,6,8,10(32),11,13,16,18-nonaen-24-one] | 5 | 3 | – | 3 | 3.9 | 3 | 63
O[C@@H]1c2ncc(o2)CCc2c(Cl)cc3[nH]ncc3c2-c2ncc3c(nc(OC[C@@]45CCCN4C[C@H](F)C5)nc3c2F)N2CCC[C@@H]1C2 [Example 233] | 4 | 2 | – | 3 | 1 | 1 | 23
O=C1OCCc2c(Cl)cc3[nH]ncc3c2-c2ncc3c(nc(OC[C@@]45CCCN4C[C@H](F)C5)nc3c2F)N2CCO[C@]3(C2)C[C@H](C3)O1 [Example 248, (1R,3R)-10-chloro-32-fluoro-24-(((2R,7aS)-2-fluorotetrahydro-1H-pyrrolo[1,2-a]pyrrol-7a(5H)-yl)methoxy)-4,6,30-trioxa-13,14,19,23,25,27-hexaazaheptacyclo[25.3.1.1~1,3~.1~18,22~.0~9,17~.0~12,16~.0~21,26~]tritriaconta-9,11,14,16,18(32),19,21,23,25-nonaen-5-one] | 4 | 13 | 7 | 2 | 7.8 | – | 85

The next lines start with results.

IC50 [1] [nM] | IC50 (AsPC-1 cells) [nM] | IC50 (MIA PaCa-2 cells) [nM] | IC50 [3] [nM] | IC50 [4] [nM] | IC50 (SW620 cells) [nM] | SMILES | inhibition in vivo at 100 mg/kg [2] [%]
4 | 79 | 24 | 3 | 5.3 | 20 | CN1CCC[C@H]1COc1nc2c3cnc(c(F)c3n1)-c1c(c(Cl)cc3[nH]ncc13)CCOC(=O)O[C@H]1C[C@]3(CCCN2C3)C1 (single isomer, unassigned) [Example 212] | 85
2 | 80 | 20 | 1 | 9 | 20.8 | Cc1cc2[nH]ncc2c2c1CCCOC(=O)O[C@@H]1COCCN(C1)c1nc(OC[C@@]34CCCN3C[C@H](F)C4)nc3c(F)c-2ncc13 [Example 97, (26S)-32-fluoro-4-(((2R,7aS)-2-fluorotetrahydro-1H-pyrrolo[1,2-a]pyrrol-7a(5H)-yl)methoxy)-18-methyl-23,25,28-trioxa-1,3,5,9,14,15-hexaazahexacyclo[24.4.1.1~6,10~.0~2,7~.0~11,19~.0~12,16~]dotriaconta-2,4,6,8,10(32),11,13,16,18-nonaen-24-one] | 85
3 | 30 | 1 | 2 | 2 | 10 | O=C1OCCCc2c(Cl)cc3[nH]ncc3c2-c2ncc3c(nc(OC[C@@]45CCCN4C[C@H](F)C5)nc3c2F)N2CCOC[C@H](C2)O1 [Example 99, (26S)-18-Chloro-32-fluoro-4-(((2R,7aS)-2-fluorotetrahydro-1H-pyrrolo[1,2-a]pyrrol-7a(5H)-yl)methoxy)-23,25,28-trioxa-1,3,5,9,14,15-hexaazahexacyclo[24.4.1.1˜6,10˜.0˜2,7˜.0˜11,19˜.0˜12,16˜]dotriaconta-2,4,6,8,10(32),11,13,16,18-nonaen-24-one] | 91
4 | 5 | 4 | 2 | 4.5 | 4 | Cc1cc2[nH]ncc2c2c1CCCOC(=O)O[C@]1(C)COCCN(C1)c1nc(OC[C@@]34CCCN3C[C@H](F)C4)nc3c(F)c-2ncc13 [Example 190, (26S)-32-fluoro-4-(((2R,7aS)-2-fluorotetrahydro-1H-pyrrolo[1,2-a]pyrrol-7a(5H)-yl)methoxy)-18,26-dimethyl-23,25,28-trioxa-1,3,5,9,14,15-hexaazahexacyclo[24.4.1.1~6,10~.0~2,7~.0~11,19~.0~12,16~]dotriaconta-2,4,6,8,10(32),11,13,16,18-nonaen-24-one] | 86
3 | 8 | 1 | 2 | 1.9 | 2 | C[C@@]12COCCN(C1)c1nc(OC[C@@]34CCCN3C[C@H](F)C4)nc3c(F)c(ncc13)-c1c(c(Cl)cc3[nH]ncc13)CCCOC(=O)O2 [Example 191, (26S)-18-chloro-32-fluoro-4-(((2R,7aS)-2-fluorotetrahydro-1H-pyrrolo[1,2-a]pyrrol-7a(5H)-yl)methoxy)-26-methyl-23,25,28-trioxa-1,3,5,9,14,15-hexaazahexacyclo[24.4.1.1~6,10~.0~2,7~.0~11,19~.0~12,16~]dotriaconta-2,4,6,8,10(32),11,13,16,18-nonaen-24-one] | 91
